According to patent EP2272817A1, “PAI-1 INHIBITOR” (Institute of Medicinal Molecular Design, Inc., priority 2008, dated 2009):

What follows are compounds tested against recombinant human PAI-1 (Homo sapiens, UniProt P05121) (assay: Test Example 2: Human PAI-1 Inhibitory Activity (pH 7.4 HEPES buffer, 10 minutes incubation with two-chain tPA)). Settings: read-out: Inhibition Rate of PAI-1 Activity (%).
Format: biochemical
Set-up: purchased Molecular Innovations, Inc
Protocol: 0.1 M HEPES, 0.1 M NaCl. 1 mM EDTA. 0.1 % Polyethylene glycol 8,000 (Hampton Research Corporation),
2 mM Dimethyldecylphoshine oxide [Apo-10] (Fluka Corporation)

Sequence of recombinant human PAI-1 (P05121 24-402): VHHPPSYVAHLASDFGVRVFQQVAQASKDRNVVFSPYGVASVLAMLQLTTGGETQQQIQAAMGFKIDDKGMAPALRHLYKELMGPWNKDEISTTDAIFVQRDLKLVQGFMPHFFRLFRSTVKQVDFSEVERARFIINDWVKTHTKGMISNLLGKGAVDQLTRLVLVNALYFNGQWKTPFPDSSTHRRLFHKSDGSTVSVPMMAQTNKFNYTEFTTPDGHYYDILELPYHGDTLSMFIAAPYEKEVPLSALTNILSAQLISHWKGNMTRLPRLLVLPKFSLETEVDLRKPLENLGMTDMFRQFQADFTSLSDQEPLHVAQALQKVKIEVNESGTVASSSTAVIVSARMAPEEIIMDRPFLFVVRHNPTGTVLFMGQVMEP

inhibition at 0.1 µM [%]	inhibition at 0.3 µM [%]	inhibition at 1 µM [%]	inhibition at 3 µM [%]	inhibition at 10 µM [%]	inhibition at 25 µM [%]	SMILES
		6	64	> 99	> 99	CC(C)(C)c1ccc(CN(C(=O)C(=O)O)c2ccc(C(=O)Nc3ccc(OC(F)(F)F)cc3)cc2)cc1 [Compound 617]
26	12	23	92			O=C(O)C(=O)N(CCCCc1ccccc1)c1ccc(-c2ccc3ccccc3c2)cc1 [Compound 671]
1	5	86	97			CCCCOc1ccc(-c2ccc(OCC(=O)O)c(Oc3ccc(C(C)(C)C)cc3)c2)cc1 [Compound 468]
		5	13	45	81	O=C(O)C(=O)N(Cc1ccc(-c2ccc(OC(F)(F)F)cc2)cc1)c1ccccc1 [Compound 611]
25	83	97	97			CCCCN(CC(=O)O)c1ccc(-c2ccc(OC(F)(F)F)cc2)cc1Oc1ccc(C(C)(C)C)cc1 [Compound 533]
17	14	70	> 99			O=C(O)CCc1ccc(-c2ccc(OC(F)(F)F)cc2)cc1Oc1ccc(OC(F)(F)F)cc1 [Compound 479]
3	24	> 99	> 99			CC(C)(C)c1ccc(Oc2cc(-c3ccc(C(C)(C)C)cc3)ccc2CCC(=O)O)cc1 [Compound 497]
1	26	95	98			CCCCOc1ccc(Oc2cc(-c3ccc(OC(F)(F)F)cc3)ccc2CCC(=O)O)cc1 [Compound 461]
7	9	77	> 99			CC(C)(C)[C@H]1CC[C@@H](CN(C(=O)C(=O)O)c2ccc(-c3ccc(OC(F)(F)F)cc3)cc2)CC1 [Compound 680]
19	14	25	80			CC(Oc1cc(-c2ccc(OC(F)(F)F)cc2)ccc1/C=C/C(=O)O)c1ccccc1 (centres unmarked) [Compound 500]
15	9	26	> 99			CC(C)(C)Oc1ccc(Oc2cc(-c3ccc(OC(F)(F)F)cc3)ccc2CCC(=O)O)cc1 [Compound 473]
11	68	> 99	> 99			CCCCc1ccc(Oc2cc(-c3ccc(OC(F)(F)F)cc3)ccc2/C=C/C(=O)O)cc1 [Compound 511]
0	2	81	> 99			CC(C)(C)c1ccc(Cc2cc(-c3ccc(OC(F)(F)F)cc3)ccc2OCC(=O)O)cc1 [Compound 550]
8	12	51	97			O=C(O)/C=C/c1ccc(-c2ccc(OC(F)(F)F)cc2)cc1Sc1ccccc1 [Compound 528]
2	9	78	> 99			O=C(O)/C=C/c1ccc(-c2ccc(OC(F)(F)F)cc2)cc1OC(c1ccccc1)c1ccccc1 [Compound 506]
0	21	89	98			CC(C)(C)[C@H]1CC[C@@H](N(C(=O)C(=O)O)c2ccc(-c3ccc(OC(F)(F)F)cc3)cc2)CC1 [Compound 666]
		9	18	78	> 99	O=C(O)CC(=O)N(Cc1ccccc1)c1ccc(-c2ccc(OC(F)(F)F)cc2)cc1F [Compound 602]
0	15	> 99	> 99			O=C(O)C(=O)N(CCCCc1ccccc1)c1ccc(N2CCCC2)c(-c2ccc(OC(F)(F)F)cc2)c1 [Compound 673]
7	21	60	> 99			O=C(O)/C=C/c1ccc(-c2ccc(OC(F)(F)F)cc2)cc1Oc1ccc(OC(F)(F)F)cc1 [Compound 477]
7	13	70	98			CC(C)(C)c1ccc(Oc2cc(-c3ccccc3OC(F)(F)F)ccc2OCC(=O)O)cc1 [Compound 456]

Further lines, the compound ahead of its results:

SMILES	inhibition at 0.1 µM [%]	inhibition at 0.3 µM [%]	inhibition at 1 µM [%]	inhibition at 3 µM [%]	inhibition at 10 µM [%]	inhibition at 25 µM [%]
CC(C)(C)c1ccc(Oc2cc(-c3cccc(C(F)(F)F)c3)ccc2CCC(=O)O)cc1 [Compound 332]	12	4	29	> 99		
CCC(CC)Oc1ccc(-c2ccc(OC(F)(F)F)cc2)cc1N(CCCCc1ccccc1)C(=O)C(=O)O [Compound 369]	0	8	70	95		
O=C(O)C(=O)N(CCCCc1ccccc1)c1cc(-c2ccc(OC(F)(F)F)cc2)ccc1OCCCC1CCCC1 [Compound 355]	2	3	91	86		
CCCCCOc1ccc(-c2ccc(OC(F)(F)F)cc2)cc1N(CCCCc1ccc(Cl)cc1)C(=O)C(=O)O [Compound 384]	0	11	91	95		
CCCCCCC(Oc1cc(-c2ccc(OC(F)(F)F)cc2)ccc1Oc1ccc(C(C)(C)C)cc1)C(=O)O (centres unmarked) [Compound 323]	19	16	91	82		
O=C(O)C(=O)N(CCCCc1ccccc1)c1cc(-c2ccc(OC(F)(F)F)cc2)ccc1OC1CCCCC1 [Compound 368]	0	22	95	85		
CCCCCOc1ccc(-c2cccc(OC(F)(F)F)c2)cc1N(CCCCc1ccccc1)C(=O)C(=O)O [Compound 391]	10	8	69	89		
CCCCCCCCCOc1cc(N(Cc2ccc(C(C)(C)C)cc2)C(=O)C(=O)O)ccc1-c1ccc(OC(F)(F)F)cc1 [Compound 388]	75	> 99	> 99	> 99		
CCCCCCCCCCOc1ccc(-c2ccc(OC(F)(F)F)cc2)cc1N(CCCCc1ccccc1)C(=O)C(=O)O [Compound 365]	41	97	97	92		
CCCN(CC(=O)O)c1cc(-c2ccc(OC(F)(F)F)cc2)ccc1Oc1ccc(C(C)(C)C)cc1 [Compound 435]	12	29	81	98		
CCC(CC)Oc1ccc(-c2ccc(OCC(=O)O)c(Oc3ccc(C(C)(C)C)cc3)c2)cc1 [Compound 447]	4	11	89	> 99		
CCCCCCCCCCCCCCCOc1cc(-c2ccc(OC(F)(F)F)cc2)ccc1N(CCCCc1ccccc1)C(=O)C(=O)O [Compound 385]	74	> 99	> 99	> 99		
O=C(O)C(=O)N(CCCCc1ccccc1)c1cc(-c2ccc(OC(F)(F)F)cc2)ccc1N1CCCCC1 [Compound 370]	0	0	66	97		
CC(C)(C)c1ccc(Oc2ccc(-c3cccc(C(F)(F)F)c3)cc2OCC(=O)O)cc1 [Compound 314]	0	5	22	93		
CCCCCOc1cc(-c2ccc(OC(F)(F)F)cc2)cc(OCc2ccc(C(C)(C)C)cc2)c1OCC(=O)O [Compound 301]	15	25	96	97		
CCCCC(Oc1ccc(-c2ccc(OC(F)(F)F)cc2)cc1Oc1ccc(C(C)(C)C)cc1)C(=O)O (centres unmarked) [Compound 305]	6	9	54	88		
CCCCN(CC(=O)O)c1cc(-c2ccc(OC(F)(F)F)cc2)ccc1OCCCCc1ccccc1 [Compound 433]	13	6	41	98		
CC(C)(C)c1cccc(Oc2ccc(-c3ccc(OC(F)(F)F)cc3)cc2CCC(=O)O)c1 [Compound 438]	13	11	50	> 99		
CCCCCCC(Oc1cc(-c2ccc(OC(F)(F)F)cc2)ccc1Oc1ccc(OC(F)(F)F)cc1)C(=O)O (centres unmarked) [Compound 326]	0	28	94	94		
O=C(O)c1cc(-c2ccc(OC(F)(F)F)cc2)ccc1OCc1ccccc1 [Compound 401]				15	17	53
CCCCCOc1cc(-c2cccc(C)c2)ccc1N(CCCCc1ccccc1)C(=O)C(=O)O [Compound 376]	6	15	62	95		
CC(C)(C)c1ccc(Oc2cc(-c3cccc(OC(F)(F)F)c3)ccc2OCC(=O)O)cc1 [Compound 331]	2	1	83	98		
